Assay results as given in patent US7700786B2, “Pyrazole derivative, intermediate therefor, processes for producing these, and herbicide containing these as active ingredient” (Sagami Chemical Research Center, priority 2001, dated 2010).

Tests used:
Assay type in all cases: in vivo
Echinochloa oryzicola = test: Herbicidal efficacy test by pre-emergence treatment under submergence condition; conditions: 15th day after treatment, ratings of 1 to 5
From the text: (§3) A 1/10,000-are pot was filled with paddy field soil, and, after plowing, seeds of Echinochloa oryzicola, Cyperus difformis, Monochoria vaginalis, Scirpus juncoides, Eleocharis acicularis and other annual broadleaf weeds such as Lindernia procumbens, Rotala indica and Elatine triandra were sown. Rice (oryza sativa) seedlings (cultiver “Koshihikari”) at a 2.5-leaf stage were transplanted and kept under a submergence condition. After one day, the wettable powder or emulsifiable concentrate of the compound of the present invention, prepared according to Preparation Example, was diluted and dropped on a water surface at a predetermined dose.

[1] = system: annual broadleaf weeds such as Lindernia procumbens, Rotala indica and Elatine triandra; test: as above; conditions: 15th day after treatment, ratings of 1 to 5
From the text: as §3

sweet corn (Zea mays) = test: Injury to corn, soil treatment before germination under upland field condition; conditions: dose 1 kg/ha; 21st day after treatment; ratings of 1 to 5
From the text: (§1) A vat having an area of 5×10 cm^2 and a depth of 5 cm was filled with upland field soil, and seeds of Chenopodium album, Echinochloa crus-galli, Amaranthus viridis, Digitaria ciliaris and sweet corn (Zea mays) were sown thereon and covered with soil by a depth of 0.5 cm.

Abutilon theophrasti = test: Herbicidal efficacy test by foliar treatment after germination under upland field condition; conditions: Dc: Digitaria ciliaris (table footnote; method names Abutilon theophrasti), dose 1 kg/ha, rated 1 to 5 on the 14th day after treatment
Monochoria vaginalis = test: Herbicidal efficacy test by pre-emergence treatment under submergence condition; conditions: 15th day after treatment, ratings of 1 to 5; also: key: 1 shows no influence; 5 shows complete die
From the text: as §3

Echinochloa crus-galli [2] = test: Herbicidal efficacy test by foliar treatment after germination under upland field condition; conditions: dose 1 kg/ha, rated 1 to 5 on the 14th day after treatment
From the text: (§2) A vat having an area of 5×10 cm^2 and a depth of 5 cm was filled with upland field soil, and seeds of Chenopodium album, Echinochloa crus-galli, Amaranthus viridis and Abutilon theophrasti were sown thereon and covered with soil by a depth of 0.5 cm. Water was sprayed as required to grow them for 14 days.

Amaranthus viridis [3] = test: as above; conditions: dose 1 kg/ha, rated 1 to 5 on the 14th day after treatment
From the text: as §2

Chenopodium album [4] = test: as above; conditions: dose 1 kg/ha, rated 1 to 5 on the 14th day after treatment
From the text: as §2

Scirpus juncoides = test: Herbicidal efficacy test by pre-emergence treatment under submergence condition; conditions: 15th day after treatment, ratings of 1 to 5
From the text: as §3

Echinochloa crus-galli [5] = test: Herbicidal efficacy test by soil treatment before germination under upland field condition; conditions: dose 1 kg/ha; 21st day after treatment; ratings of 1 to 5
From the text: as §1

Amaranthus viridis [6] = test: as above; conditions: dose 1 kg/ha; 21st day after treatment; ratings of 1 to 5
From the text: as §1

Digitaria ciliaris = test: as above; conditions: dose 1 kg/ha; 21st day after treatment; ratings of 1 to 5
From the text: as §1

Chenopodium album [7] = test: as above; conditions: dose 1 kg/ha; 21st day after treatment; ratings of 1 to 5
From the text: as §1

Cyperus difformis = test: Herbicidal efficacy test by pre-emergence treatment under submergence condition; conditions: 15th day after treatment, ratings of 1 to 5; also: key: 1 shows no influence; 5 shows complete die
From the text: as §3

Eleocharis acicularis = test: as above; conditions: 15th day after treatment, ratings of 1 to 5; also: key: 1 shows no influence; 5 shows complete die
For Herbicidal activity Av in this document: key: 1 shows no influence; 5 shows complete die.
For Herbicidal activity Ca in this document: key: 1 shows no influence; 5 shows complete die.

CNC(=O)n1nc(Oc2c(Cl)cc(C(F)(F)F)cc2Cl)c(Cl)c1C [Compound 3-249]
Herbicidal efficacy Eo (Echinochloa oryzicola; dose 0.5 kg/ha): 5 | Herbicidal efficacy Eo (Echinochloa oryzicola; dose 1 kg/ha): 5 | Herbicidal efficacy Blw ([1]; dose 0.5 kg/ha): 5 | Herbicidal efficacy Blw ([1]; dose 1 kg/ha): 5 | Injury Zm (sweet corn (Zea mays)): 1.2 | Herbicidal activity Dc (Abutilon theophrasti): 5 | Herbicidal efficacy Mv (Monochoria vaginalis; dose 0.5 kg/ha): 5 | Herbicidal efficacy Mv (Monochoria vaginalis; dose 1 kg/ha): 5 | Herbicidal activity Ec (Echinochloa crus-galli [2]): 5 | Herbicidal activity Av (Amaranthus viridis [3]): 5 | Herbicidal activity Ca (Chenopodium album [4]): 5 | Herbicidal efficacy Sj (Scirpus juncoides; dose 0.5 kg/ha): 5 | Herbicidal efficacy Sj (Scirpus juncoides; dose 1 kg/ha): 5 | Herbicidal activity Ec (Echinochloa crus-galli [5]): 4.5 | Herbicidal activity Av (Amaranthus viridis [6]): 5 | Herbicidal activity Dc (Digitaria ciliaris): 5 | Herbicidal activity Ca (Chenopodium album [7]): 5 | Herbicidal efficacy Cd (Cyperus difformis; dose 0.5 kg/ha): 5 | Herbicidal efficacy Cd (Cyperus difformis; dose 1 kg/ha): 5 | Herbicidal efficacy Ea (Eleocharis acicularis; dose 0.5 kg/ha): 5 | Herbicidal efficacy Ea (Eleocharis acicularis; dose 1 kg/ha): 5

CCNC(=O)n1nc(Oc2c(Cl)cc(C(F)(F)F)cc2Cl)c(Cl)c1C [Compound 3-253]
Herbicidal efficacy Eo (Echinochloa oryzicola; dose 0.5 kg/ha): 5 | Herbicidal efficacy Eo (Echinochloa oryzicola; dose 1 kg/ha): 5 | Herbicidal efficacy Blw ([1]; dose 0.5 kg/ha): 5 | Herbicidal efficacy Blw ([1]; dose 1 kg/ha): 5 | Injury Zm (sweet corn (Zea mays)): 1.5 | Herbicidal activity Dc (Abutilon theophrasti): 5 | Herbicidal efficacy Mv (Monochoria vaginalis; dose 0.5 kg/ha): 5 | Herbicidal efficacy Mv (Monochoria vaginalis; dose 1 kg/ha): 5 | Herbicidal activity Ec (Echinochloa crus-galli [2]): 5 | Herbicidal activity Av (Amaranthus viridis [3]): 5 | Herbicidal activity Ca (Chenopodium album [4]): 5 | Herbicidal efficacy Sj (Scirpus juncoides; dose 0.5 kg/ha): 5 | Herbicidal efficacy Sj (Scirpus juncoides; dose 1 kg/ha): 5 | Herbicidal activity Ec (Echinochloa crus-galli [5]): 4 | Herbicidal activity Av (Amaranthus viridis [6]): 5 | Herbicidal activity Dc (Digitaria ciliaris): 5 | Herbicidal activity Ca (Chenopodium album [7]): 5 | Herbicidal efficacy Cd (Cyperus difformis; dose 0.5 kg/ha): 5 | Herbicidal efficacy Cd (Cyperus difformis; dose 1 kg/ha): 5 | Herbicidal efficacy Ea (Eleocharis acicularis; dose 0.5 kg/ha): 5 | Herbicidal efficacy Ea (Eleocharis acicularis; dose 1 kg/ha): 5

CNC(=O)n1nc(Oc2c(Cl)cc(C(F)(F)F)cc2Cl)cc1C [Compound 3-14]
Herbicidal efficacy Eo (Echinochloa oryzicola; dose 0.5 kg/ha): 5 | Herbicidal efficacy Eo (Echinochloa oryzicola; dose 1 kg/ha): 5 | Herbicidal efficacy Blw ([1]; dose 0.5 kg/ha): 5 | Herbicidal efficacy Blw ([1]; dose 1 kg/ha): 5 | Herbicidal activity Dc (Abutilon theophrasti): 5 | Herbicidal efficacy Mv (Monochoria vaginalis; dose 0.5 kg/ha): 5 | Herbicidal efficacy Mv (Monochoria vaginalis; dose 1 kg/ha): 5 | Herbicidal activity Ec (Echinochloa crus-galli [2]): 5 | Herbicidal activity Av (Amaranthus viridis [3]): 5 | Herbicidal activity Ca (Chenopodium album [4]): 5 | Herbicidal efficacy Sj (Scirpus juncoides; dose 0.5 kg/ha): 5 | Herbicidal efficacy Sj (Scirpus juncoides; dose 1 kg/ha): 5 | Herbicidal activity Ec (Echinochloa crus-galli [5]): 4.9 | Herbicidal activity Av (Amaranthus viridis [6]): 5 | Herbicidal activity Dc (Digitaria ciliaris): 5 | Herbicidal activity Ca (Chenopodium album [7]): 5 | Herbicidal efficacy Cd (Cyperus difformis; dose 0.5 kg/ha): 5 | Herbicidal efficacy Cd (Cyperus difformis; dose 1 kg/ha): 5 | Herbicidal efficacy Ea (Eleocharis acicularis; dose 0.5 kg/ha): 5 | Herbicidal efficacy Ea (Eleocharis acicularis; dose 1 kg/ha): 5

C=CCNC(=O)n1nc(Oc2c(Cl)cc(C(F)(F)F)cc2Cl)cc1C [Compound 3-130]
Herbicidal efficacy Eo (Echinochloa oryzicola; dose 0.5 kg/ha): 5 | Herbicidal efficacy Eo (Echinochloa oryzicola; dose 1 kg/ha): 5 | Herbicidal efficacy Blw ([1]; dose 0.5 kg/ha): 5 | Herbicidal efficacy Blw ([1]; dose 1 kg/ha): 5 | Herbicidal activity Dc (Abutilon theophrasti): 5 | Herbicidal efficacy Mv (Monochoria vaginalis; dose 0.5 kg/ha): 5 | Herbicidal efficacy Mv (Monochoria vaginalis; dose 1 kg/ha): 5 | Herbicidal activity Ec (Echinochloa crus-galli [2]): 5 | Herbicidal activity Av (Amaranthus viridis [3]): 5 | Herbicidal activity Ca (Chenopodium album [4]): 5 | Herbicidal efficacy Sj (Scirpus juncoides; dose 0.5 kg/ha): 5 | Herbicidal efficacy Sj (Scirpus juncoides; dose 1 kg/ha): 5 | Herbicidal efficacy Cd (Cyperus difformis; dose 0.5 kg/ha): 5 | Herbicidal efficacy Cd (Cyperus difformis; dose 1 kg/ha): 5 | Herbicidal efficacy Ea (Eleocharis acicularis; dose 0.5 kg/ha): 5 | Herbicidal efficacy Ea (Eleocharis acicularis; dose 1 kg/ha): 5

CNC(=S)n1nc(Oc2c(Cl)cc(C(F)(F)F)cc2Cl)cc1C [Compound 3-15]
Herbicidal efficacy Eo (Echinochloa oryzicola; dose 0.5 kg/ha): 5 | Herbicidal efficacy Eo (Echinochloa oryzicola; dose 1 kg/ha): 5 | Herbicidal efficacy Blw ([1]; dose 0.5 kg/ha): 5 | Herbicidal efficacy Blw ([1]; dose 1 kg/ha): 5 | Herbicidal activity Dc (Abutilon theophrasti): 5 | Herbicidal efficacy Mv (Monochoria vaginalis; dose 0.5 kg/ha): 5 | Herbicidal efficacy Mv (Monochoria vaginalis; dose 1 kg/ha): 5 | Herbicidal activity Ec (Echinochloa crus-galli [2]): 5 | Herbicidal activity Av (Amaranthus viridis [3]): 5 | Herbicidal activity Ca (Chenopodium album [4]): 5 | Herbicidal efficacy Sj (Scirpus juncoides; dose 0.5 kg/ha): 5 | Herbicidal efficacy Sj (Scirpus juncoides; dose 1 kg/ha): 5 | Herbicidal efficacy Cd (Cyperus difformis; dose 0.5 kg/ha): 5 | Herbicidal efficacy Cd (Cyperus difformis; dose 1 kg/ha): 5 | Herbicidal efficacy Ea (Eleocharis acicularis; dose 0.5 kg/ha): 5 | Herbicidal efficacy Ea (Eleocharis acicularis; dose 1 kg/ha): 5

CCONC(=O)n1nc(Oc2c(Cl)cc(C(F)(F)F)cc2Cl)cc1C [Compound 3-158]
Herbicidal efficacy Eo (Echinochloa oryzicola; dose 0.5 kg/ha): 5 | Herbicidal efficacy Eo (Echinochloa oryzicola; dose 1 kg/ha): 5 | Herbicidal efficacy Blw ([1]; dose 0.5 kg/ha): 5 | Herbicidal efficacy Blw ([1]; dose 1 kg/ha): 5 | Herbicidal activity Dc (Abutilon theophrasti): 5 | Herbicidal efficacy Mv (Monochoria vaginalis; dose 0.5 kg/ha): 5 | Herbicidal efficacy Mv (Monochoria vaginalis; dose 1 kg/ha): 5 | Herbicidal activity Ec (Echinochloa crus-galli [2]): 5 | Herbicidal activity Av (Amaranthus viridis [3]): 5 | Herbicidal activity Ca (Chenopodium album [4]): 5 | Herbicidal efficacy Sj (Scirpus juncoides; dose 0.5 kg/ha): 5 | Herbicidal efficacy Sj (Scirpus juncoides; dose 1 kg/ha): 5 | Herbicidal efficacy Cd (Cyperus difformis; dose 0.5 kg/ha): 5 | Herbicidal efficacy Cd (Cyperus difformis; dose 1 kg/ha): 5 | Herbicidal efficacy Ea (Eleocharis acicularis; dose 0.5 kg/ha): 5 | Herbicidal efficacy Ea (Eleocharis acicularis; dose 1 kg/ha): 5
